{"source": "patent US8278359B2", "about": "“Compositions containing amines and use thereof to treat acne or reduce the appearance of oil or pores on the skin” (Johnson & Johnson Consumer Companies, Inc., priority 2005, dated 2012)", "key": {"tyrosinase": {"system": "tyrosinase", "test": "Tyrosinase protein levels in B16 cells (Western blot, normalized to β-Actin)", "assay_type": "cell-based, murine", "settings": "pH 7.2, 48 hours, PBS treated control = 1", "procedure": "THPED was also tested for its ability to induce tyrosinase protein levels in B16 cells. B16 cells were treated with THPED at different concentrations at pH 7.2 for 48 hours and cells were then lysed in 250 μl of PBS containing 1% Triton X-100. B16 cell lysates containing 3.7 μg of protein (for tyrosinase protein analysis) and 1.2 μg of protein (for β-Actin protein analysis) were electrophoresed on 4-20% Tris-Glycine SDS PAGE minigels (Invitrogen, Carlsbad, Calif.), transferred onto PVDF membrane (Bio Rad, Hercules, Calif.), and probed with antibodies for Tyrosinase (1:200 in PBS+0.2% Tween 20+5% BSA, obtained from Santa Cruz Biotechnology, Inc., Santa Cruz, Calif.) and β-Actin (1:2000 in PBS+0.2% Tween 20+5% BSA, obtained from Sigma, St. Louis, Mo.). Protein expression of tyrosinase and β-Actin were analyzed using ECL reagent and Hyperfilm ECL obtained from Amersham (Piscataway, N.J.). The film was developed using a Konica SRX-101A Processor (East Orange, N.J.).\nTyrosinase protein level in untreated B16 cells was normalized to 1."}, "facial skin pores": {"system": "facial skin pores", "test": "Clinical study: reduction of pore size on facial skin, parallel-polarized image analysis", "assay_type": "in vivo, human", "settings": "composition containing 2.5% THPED, 45 minutes", "excerpt": "A composition containing 2.5% THPED was compared to a corresponding placebo composition for the reduction of pore size on facial skin. 31 subjects were enrolled in the study, with all of the subjects completing the protocol. Table XVII discloses the formulation of the two compositions.\nAbout 0.45-0.52 g of each composition was applied on one side of the face for each subject and allowed to dry. Each composition was applied only once to the area for the duration of this study. At baseline and 45 minutes after composition application, parallel-polarized digital images were taken of the entire face to document changes observed in pore size. Pore Size Reduction was evaluated using computer analysis of Parallel-Polarized images of the face."}, "macrophages": {"system": "macrophages", "settings": "Bhide M V et al., Immunopharmacol. 1985; cited from earlier work"}}, "note": "Marks after values point to notes of the source that are not given here."}
{"compound": "CC(O)CN(CCN(CC(C)O)CC(C)O)CC(C)O", "note": "(stereo not drawn) [THPED, N,N,N′,N′-Tetrakis(2-hydroxypropyl)ethylenediamine]", "values": [{"measurement": "Relative increase in tyrosinase protein", "setting": "tyrosinase; 0.01%", "value": 3, "unit": "fold"}, {"measurement": "Relative increase in tyrosinase protein", "setting": "tyrosinase; 0.025%", "value": 25, "unit": "fold"}, {"measurement": "Relative increase in tyrosinase protein", "setting": "tyrosinase; 0.05%", "value": 36, "unit": "fold"}, {"measurement": "% Of Pore Size Reduction over Placebo", "setting": "facial skin pores; single application, subject responders", "value": 7.11, "unit": "%*"}, {"measurement": "greater pore reduction response than the placebo alone", "setting": "facial skin pores", "value": 19.4, "unit": "%"}, {"measurement": "effect on macrophages in culture", "setting": "macrophages", "value": "increased macrophage activation"}]}
